For 28 molecules, EC50 results are on record in US20110172297A1, “Oxopiperdinyl And Pyranyl Sulfonamides and Pharmaceutical Compositions Thereof” (Pfizer Inc, priority 2008, published 2011).

pEC50: −log10 of the molar value.

In this test the test system is AMPA receptors. In words: AMPA ES cell FLIPR screen (AMPA Potentiator Assay). The test is classed as cell-based. The following applies: murine ES cell-derived neurons, FLIPR Fluo-4 calcium signal, 32 uM AMPA challenge; values marked * are the geometric mean of 2-9 EC50 determinations. The protocol:
The murine ES cell line used was E14-Sx1-16C, which has a targeted mutation in the Sox1 gene, a neuroectodermal marker, that offers G418 resistance when the Sox1 gene is expressed (Stem Cell Sciences). ES cells were maintained undifferentiated as previously described (Roach). […] ES cells were plated on gelatin-coated dishes (BD Biosciences), the media was changed daily and the cells were dissociated with 0.05% Trypsin EDTA (Invitrogen) every other day.
Embryoid Body Formation: Prior to embryoid body (EB) formation the ES cells were weaned from FBS onto Knockout Serum Replacement (KSR) (Invitrogen). To form EBs, ES cells were dissociated into a single cell suspension, then 3×10^6 cells were plated in bacteriology dishes (Nunc 4014) and grown as a suspension culture in NeuroEB-I medium that consisted of Knockout™ D-MEM (Invitrogen), supplemented with 10% KSR (Invitrogen), 0.2 mM L-Glutamine (Invitrogen), 0.1 mM MEM non-essential amino acids (Invitrogen), 30 μg/ml Gentamicin (Invitrogen), 1000 u/ml ESGRO (Chemicon), 0.1 mM 2-Mercaptoethanl (Sigma) and 150 ng/ml Transferrin (Invitrogen). The plates were put on a Stovall Belly Button shaker in an atmospheric oxygen incubator. The media was changed on day 2 of EB formation with NeuroEB-I and on day 4 with NeuroEB-II (NeuroEB-I plus 1 μg/ml mNoggin [R&D Systems]).
Neuronal Precursor Selection and Expansion: On day 5 of EB formation, EBs were dissociated with 0.05% Trypsin EDTA, and 4×10^6cells/100 mm dish were plated on Laminin coated tissue culture dishes in Neuroll-G418 medium that consisted of a base medium of a 1:1 mixture of D-MEM/F12 supplemented with N2 supplements and NeuroBasal Medium supplemented with B27 supplement and 0.1 mM L-Glutamine (all from Invitrogen). The base medium was then supplemented with 10 ng/ml bFGF (Invitrogen), 1 μg/ml mNoggin, 500 ng/ml SHH—N, 100 ng/ml FGF-8b (R&D Systems), 1 μg/ml Laminin and 200 μg/ml G418 (Invitrogen) for selection of neuronal precursors expressing Sox-1. The plates were put in an incubator that contained 2% Oxygen and were maintained in these conditions. During the 6-day selection period, the Neuroll media was changed daily. On day 6, the surviving neuronal precursor foci were dissociated with 0.05% Trypsin EDTA and the cells were plated at a density of 1.5×10^6 cells/100 mm Laminin coated dish in Neuroll-G418 medium. The cells were dissociated every other day for expansion, and prepared for Cryopreservation at passage 3 or 4. The crypreservation medium contained 50% KSR, 10% Dimethyl Sulfoxide (DMSO) (Sigma) and 40% Neurol-G418I medium. Neuronal precursors were crypreserved at a concentration of 4×10^6 cells/ml and 1 ml/cryovial in a controlled rate freezer overnight then transferred to an ultra-low freezer or liquid nitrogen for long-term storage.
Neuronal Differentiation: Cryopreserved ES cell-derived neuronal precursors were thawed by the rapid thaw method in a 37-degree water-bath. The cells were transferred from the cryovial to a 100 mm Laminin coated tissue culture dish that already contained Neuroll-G418 that had been equilibrated in a 2% Oxygen incubator. The media was changed with fresh Neuroll-G418 the next day. The cells were dissociated every other day as described above for expansion to generate enough cells to plate for the screen. For the screen, the cells were plated into 384-well poly-d-lysine coated tissue culture dishes (BD Biosciences) by the automated SelecT at a cell density of 6K cells/well in differentiation medium Neurolll that contained a 4:1 ratio of the NeuroBasalMedium/B27:D-MEM/F12/N2 supplemented with 1 μM cAMP (Sigma), 200 μM Ascorbic Acid (Sigma), 1 μg/ml Laminin (Invitrogen) and 10 ng/ml BDNF (R&D Systems). The plates were put in an incubator with 2% Oxygen and allowed to complete the differentiation process for 7 days. The cells could then be used over a 5-day period for the high throughput screen.
On the day of the assay, the FLIPR assay may be performed using the following methods: […]
Consider `CC(C)S(=O)(=O)N[C@H]1CCOC[C@@H]1c1ccc(-c2ccccc2C#N)cc1` [Example 31, N-[(3R,4S)-3-(2′-cyanobiphenyl-4-yl)tetrahydro-2H-pyran-4-yl]propane-2-sulfonamide], for which the pEC50 (as a rule, the EC50 on a negative log10 scale, so that one unit is a factor of ten) was 6.50.

Take `CC(C)S(=O)(=O)N[C@@H]1CCOC[C@H]1c1ccc(-c2ccccc2C#N)cc1` [Example 32, N-[(3S,4R)-3-(2′-cyanobiphenyl-4-yl)tetrahydro-2H-pyran-4-yl]propane-2-sulfonamide]: the pEC50 was less than 4.58.

On to `CC(C)S(=O)(=O)N[C@@H]1CCOC[C@H]1c1ccc(-c2ccccc2)cc1` [Example 33, N-[(3S,4R)-3-biphenyl-4-yltetrahydro-2H-pyran-4-yl]propane-2-sulfonamide], for which the pEC50 was less than 4.50.

For `CCOc1ccccc1-c1ccc([C@H]2COCC[C@@H]2NS(=O)(=O)C(C)C)cc1` [Example 34, N-[(3R,4S)-3-(2′-ethoxybiphenyl-4-yl)tetrahydro-2H-pyran-4-yl]propane-2-sulfonamide], the pEC50 is 6.66.

In the case of `CCOc1ccccc1-c1ccc([C@@H]2COCC[C@H]2NS(=O)(=O)C(C)C)cc1` [Example 35, N-[(3S,4R)-3-(2′-ethoxybiphenyl-4-yl)tetrahydro-2H-pyran-4-yl]propane-2-sulfonamide], the pEC50 was 5.34.

With `CC(C)S(=O)(=O)N[C@H]1CCOC[C@@H]1c1ccc(-c2cccnc2)cc1` [Example 36, N-[(3R,4S)-3-(4-pyridin-3-ylphenyl)tetrahydro-2H-pyran-4-yl]propane-2-sulfonamide], the pEC50 was less than 4.50.

Turning to `CC(C)S(=O)(=O)N[C@@H]1CCOC[C@H]1c1ccc(-c2cccnc2)cc1` [Example 37, N-[(3S,4R)-3-(4-pyridin-3-ylphenyl)tetrahydro-2H-pyran-4-yl]propane-2-sulfonamide], the pEC50 is less than 5.33.

Consider `CC(C)S(=O)(=O)N[C@H]1CCOC[C@@H]1c1ccc(-c2ccc(C#N)cc2)cc1` [Example 38, N-[(3R,4S)-3-(4′-cyanobiphenyl-4-yl)tetrahydro-2H-pyran-4-yl]propane-2-sulfonamide], for which the pEC50 is 5.98.

With `CC(C)S(=O)(=O)N[C@@H]1CCOC[C@H]1c1ccc(-c2ccc(C#N)cc2)cc1` [Example 39, N-[(3S,4R)-3-(4′-cyanobiphenyl-4-yl)tetrahydro-2H-pyran-4-yl]propane-2-sulfonamide], the pEC50 is less than 4.50.

On to `CC(C)S(=O)(=O)N[C@H]1CCOC[C@@H]1c1ccc(-c2ccc(F)cc2C#N)cc1` [Example 40, N-[(3R,4S)-3-(2′-cyano-4′-fluorobiphenyl-4-yl)tetrahydro-2H-pyran-4-yl]propane-2-sulfonamide], for which the pEC50 was 6.59.

On to `CC(C)S(=O)(=O)N[C@H]1CCOC[C@@H]1c1ccc(-c2ccc(C#N)s2)cc1` [Example 41, N-{(3R,4S)-3-[4-(5-cyano-2-thienyl)phenyl]tetrahydro-2H-pyran-4-yl}propane-2-sulfonamide], for which the pEC50 was 6.08.

As for `CC(C)S(=O)(=O)N[C@@H]1CCOC[C@H]1c1ccc(-c2ccc(C#N)s2)cc1` [Example 42, N-{(3S,4R)-3-[4-(5-cyano-2-thienyl)phenyl]tetrahydro-2H-pyran-4-yl}propane-2-sulfonamide], the pEC50 was less than 4.50.

Take `CC(C)S(=O)(=O)N[C@@H]1CCCO[C@H]1c1ccc(-c2ccccc2)cc1` [Example 43, N-[(2S,3R)-2-biphenyl-4-yltetrahydro-2H-pyran-3-yl]propane-2-sulfonamide]: the pEC50 is less than 4.50.

As to `CCOc1ccccc1-c1ccc([C@H]2OCCC[C@@H]2NS(=O)(=O)C(C)C)cc1` [Example 44, N-[(2R,3S)-2-(2′-ethoxybiphenyl-4-yl)tetrahydro-2H-pyran-3-yl]propane-2-sulfonamide], the pEC50 was 6.31.

For `CCOc1ccccc1-c1ccc([C@@H]2OCCC[C@H]2NS(=O)(=O)C(C)C)cc1` [Example 45, N-[(2S,3R)-2-(2′-ethoxybiphenyl-4-yl)tetrahydro-2H-pyran-3-yl]propane-2-sulfonamide], the pEC50 was less than 5.02.

Turning to `CC(C)S(=O)(=O)N[C@H]1CCCO[C@@H]1c1ccc(-c2ccccc2C#N)cc1` [Example 46, N-[(2R,3S)-2-(2′-cyanobiphenyl-4-yl)tetrahydro-2H-pyran-3-yl]propane-2-sulfonamide], the pEC50 was 5.91.

Take `CC(C)S(=O)(=O)N[C@@H]1CCCO[C@H]1c1ccc(-c2ccccc2C#N)cc1` [Example 47, N-[(2S,3R)-2-(2′-cyanobiphenyl-4-yl)tetrahydro-2H-pyran-3-yl]propane-2-sulfonamide]: the pEC50 was 4.69.

With `CC(C)S(=O)(=O)N[C@H]1CCCO[C@@H]1c1ccc(-c2ccc(C#N)s2)cc1` [Example 48, N-{(2R,3S)-2-[4-(5-cyano-2-thienyl)phenyl]tetrahydro-2H-pyran-3-yl}propane-2-sulfonamide], the pEC50 is 5.25.

On to `CC(C)S(=O)(=O)N[C@@H]1CCCO[C@H]1c1ccc(-c2ccc(C#N)s2)cc1` [Example 49, N-{(2S,3R)-2-[4-(5-cyano-2-thienyl)phenyl]tetrahydro-2H-pyran-3-yl}propane-2-sulfonamide], for which the pEC50 was less than 4.50.

As for `CCOc1ccccc1-c1ccc([C@H]2NC(=O)CC[C@@H]2NS(=O)(=O)C(C)C)cc1` [Example 50, N-[(2R,3S)-2-(2′-ethoxybiphenyl-4-yl)-6-oxopiperidin-3-yl]propane-2-sulfonamide], the pEC50 was 5.77.

In the case of `CC(C)S(=O)(=O)N[C@@H]1CCC(=O)N[C@H]1c1ccc(-c2ccc(C#N)s2)cc1` [Example 51, N-{(2S,3R)-2-[4-(5-cyano-2-thienyl)phenyl]-6-oxopiperidin-3-yl}propane-2-sulfonamide], the pEC50 was 5.77.

With `CC(C)S(=O)(=O)N[C@@H]1CCC(=O)N[C@H]1c1ccc(-c2ccccc2C#N)cc1` [Example 52, N-[(2S,3R)-2-(2′-cyanobiphenyl-4-yl)-6-oxopiperidin-3-yl]propane-2-sulfonamide], the pEC50 was less than 4.50.

Consider `CC(C)S(=O)(=O)N[C@H]1CCC(=O)N[C@@H]1c1ccc(-c2ccc(C#N)s2)cc1` [Example 53, N-{(2R,3S)-2-[4-(5-cyano-2-thienyl)phenyl]-6-oxopiperidin-3-yl}propane-2-sulfonamide], for which the pEC50 is 5.63.

Turning to `CC(C)S(=O)(=O)N[C@H]1CCC(=O)N[C@@H]1c1ccc(-c2ccccc2C#N)cc1` [Example 54, N-[(2R,3S)-2-(2′-cyanobiphenyl-4-yl)-6-oxopiperidin-3-yl]propane-2-sulfonamide], the pEC50 is 5.64.

Regarding `CC(C)S(=O)(=O)N[C@H]1COCC[C@H]1c1ccc(-c2ccccc2)cc1` [Example 55, N-[(3R,4S)-4-biphenyl-4-yltetrahydro-2H-pyran-3-yl]propane-2-sulfonamide], the pEC50 was less than 4.50.

`CC(C)S(=O)(=O)N[C@@H]1COCC[C@@H]1c1ccc(-c2ccccc2C#N)cc1` [Example 56, N-[(3S,4R)-4-(2′-cyanobiphenyl-4-yl)tetrahydro-2H-pyran-3-yl]propane-2-sulfonamide]: the pEC50 is less than 4.50.

In the case of `CC(C)S(=O)(=O)N[C@H]1COCC[C@H]1c1ccc(-c2ccccc2C#N)cc1` [Example 57, N-[(3R,4S)-4-(2′-cyanobiphenyl-4-yl)tetrahydro-2H-pyran-3-yl]propane-2-sulfonamide], the pEC50 was 6.13.

As to `CC(C)S(=O)(=O)N[C@@H]1COCC[C@@H]1c1ccc(-c2ccc(C#N)s2)cc1` [Example 58, N-{(3S,4R)-4-[4-(5-cyano-2-thienyl)phenyl]tetrahydro-2H-pyran-3-yl}propane-2-sulfonamide], the pEC50 was less than 4.50.
